Key:
Alr3599 = target: T1, Alr3599 (Nostoc sp. PCC 7120 = FACHB-418, UniProt A0ACD7RVV5); experiment: HPLC diguanylate cyclase inhibition assay (GTP consumption); format: biochemical
T1 construct: full-length; pHTwinStrep vector, C-terminal twin Strep-tag kept; expressed in E. coli BL21(DE3); Strep-Tactin and SEC

[1] = target: T2, Alr1219-ΔCT (All1219-ΔCT) (Nostoc sp. PCC 7120 = FACHB-418, UniProt A0ACD7RQN0); experiment: as above; format: biochemical
T2 construct: C-terminal twin Strep-tag kept; expressed in E. coli BL21(DE3)

CdgS = target: T3, CdgS (Nostoc sp. PCC 7120 = FACHB-418, UniProt A0ACD7RTW6); experiment: as above; format: biochemical
T3 construct: gene all2874; full-length; pHTwinStrep vector, C-terminal twin Strep-tag kept; expressed in E. coli BL21(DE3); Strep-Tactin and SEC
T3 sequence (A0ACD7RTW6 1-330): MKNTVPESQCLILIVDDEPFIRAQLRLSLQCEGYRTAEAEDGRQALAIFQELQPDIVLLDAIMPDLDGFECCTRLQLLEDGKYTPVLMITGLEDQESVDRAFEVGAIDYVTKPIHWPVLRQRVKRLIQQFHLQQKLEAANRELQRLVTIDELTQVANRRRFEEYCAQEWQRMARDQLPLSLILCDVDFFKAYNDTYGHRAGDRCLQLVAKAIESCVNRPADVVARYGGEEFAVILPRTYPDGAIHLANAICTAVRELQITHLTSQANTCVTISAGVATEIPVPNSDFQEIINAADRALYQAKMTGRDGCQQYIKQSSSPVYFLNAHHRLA

[2] = substrate: Nc1nc2c(ncn2[C@@H]2O[C@H](COP(=O)(O)OP(=O)(O)OP(=O)(O)O)[C@@H](O)[C@H]2O)c(=O)[nH]1; experiment: HPLC diguanylate cyclase assay, Michaelis-Menten fit; format: biochemical, Nostoc sp. PCC 7120 = FACHB-418; settings: 3.13-200 μM GTP, 1 μM protein, 10 min, 25 °C, 50 mM Tris-HCl pH 8.0, 0.2 M NaCl, 10 mM MgCl2

## Nc1nc2c(ncn2[C@@H]2O[C@@H]3CO[P@](=O)(O)O[C@H]4[C@@H](O)[C@H](n5cnc6c(=O)[nH]c(N)nc65)O[C@@H]4CO[P@](=O)(O)O[C@H]3[C@H]2O)c(=O)[nH]1 [c-di-GMP]
Alr3599
  Ki: 16 µM
[1]
  Ki: 3.7 µM
CdgS
  Ki: 2.42 µM

B1: CdgS (Nostoc sp. PCC 7120 = FACHB-418) (protein)
chain: T3 sequence (A0ACD7RTW6 1-330)
notes: full-length; pHTwinStrep vector, C-terminal twin Strep-tag kept; expressed in E. coli BL21(DE3); Strep-Tactin and SEC
[2]
  Km: 26.6 ± 3.5 µM

B2: Alr3599 (Nostoc sp. PCC 7120 = FACHB-418) (protein)
chain: MSGISPYSLSKKPPVILVADDDKTIRMLLREAMEKEGYRVVEVTDGKQCLDAYEAVKPDIVLLDAMMPVMDGFTCCKQLLQIARNNLITALANLDTDSGLGNTVISRLWERTPILMITSLNDAESVDRAFEAGATDYITKPIHWAVLRQRLRRLLQQAQVYKQLEAANMALQHLANVDGLTGLANRRRFDNYLNTQWINLVQEGAPLSLILCDIDYFKFYNDQYGHPTGDICLQKVGAVLSYKAQKHQDLVARYGGEEFAVVMPYTHAKGAIYVAHAIQTSVRDLQIAHDKSAVSQHITLSMGVATITPTWESSPSDLIAAADKALYKAKESGRNRICQWEDSQ
notes: as for B1
[2]
  Km: 84.2 ± 30.1 µM

B3: Alr1219-ΔCT (All1219-ΔCT) (Nostoc sp. PCC 7120 = FACHB-418) (protein)
chain: HMQEELKRSKEFLQQVIDTIADPIFVKNEQHQWIVLNKAYCRFIGYPESFLVEKSDVDFFPKHEADVFRQQDELVFETQRPQENEEEFTDAYGKTHLIATKRSLHKDAAGNFFLVGVIRDITQRKIMEEELKRTAAELFRSNNELKLKEDHLRYLAYHDALTGLPNRKYFAEQLYESINWAKDNNLSLGLLFIDLDGFKQVNDSLGHEMGDRLLVVIAQRLSNSLRASDTVARLGGDEFTVILQAIPNVQVAAKVAEKILANITEPIVLNGCTAKVSVSIGISIYPETSLDPDTLLKKADAAMYRAKHLGKNRFELADRVNTEF
notes: C-terminal twin Strep-tag kept; expressed in E. coli BL21(DE3)
[2]
  Km: 20.3 ± 12.4 µM

Reference: PMC13075795, “A dual-threshold system relying on multiple c-di-GMP metabolic enzymes controls cell fate of a cyanobacterium” (PLOS Biology, 2026)
